We go through 12 molecules from patent publication US9061030B2, “sGC stimulators” (IRONWOOD PHARMACEUTICALS, INC., priority 2010, dated 2015).

Test [1] concerns the target T1, soluble guanylate cyclase (sGC) (Homo sapiens, UniProt Q02108+Q02153).
T1 construct: endogenously expressing soluble guanylate cyclase (sGC); endogenous in cells; host or cells: HEK293
T1 sequence (Q02153 1-619): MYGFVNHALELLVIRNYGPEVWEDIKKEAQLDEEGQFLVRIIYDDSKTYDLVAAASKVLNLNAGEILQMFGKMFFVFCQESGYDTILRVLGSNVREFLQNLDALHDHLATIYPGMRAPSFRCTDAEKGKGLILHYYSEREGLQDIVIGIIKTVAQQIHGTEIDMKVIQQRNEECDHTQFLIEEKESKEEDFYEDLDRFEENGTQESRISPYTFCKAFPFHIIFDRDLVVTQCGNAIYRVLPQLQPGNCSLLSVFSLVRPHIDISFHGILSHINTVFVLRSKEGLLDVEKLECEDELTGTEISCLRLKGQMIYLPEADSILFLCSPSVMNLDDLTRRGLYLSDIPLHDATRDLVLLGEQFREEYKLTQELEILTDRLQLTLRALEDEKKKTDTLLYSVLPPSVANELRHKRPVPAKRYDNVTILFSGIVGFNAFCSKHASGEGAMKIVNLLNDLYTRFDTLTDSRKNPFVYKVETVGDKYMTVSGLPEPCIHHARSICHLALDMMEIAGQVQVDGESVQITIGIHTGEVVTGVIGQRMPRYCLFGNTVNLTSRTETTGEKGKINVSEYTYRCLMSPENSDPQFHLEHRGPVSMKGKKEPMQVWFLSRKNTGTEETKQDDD
T1 sequence (Q02108 1-690): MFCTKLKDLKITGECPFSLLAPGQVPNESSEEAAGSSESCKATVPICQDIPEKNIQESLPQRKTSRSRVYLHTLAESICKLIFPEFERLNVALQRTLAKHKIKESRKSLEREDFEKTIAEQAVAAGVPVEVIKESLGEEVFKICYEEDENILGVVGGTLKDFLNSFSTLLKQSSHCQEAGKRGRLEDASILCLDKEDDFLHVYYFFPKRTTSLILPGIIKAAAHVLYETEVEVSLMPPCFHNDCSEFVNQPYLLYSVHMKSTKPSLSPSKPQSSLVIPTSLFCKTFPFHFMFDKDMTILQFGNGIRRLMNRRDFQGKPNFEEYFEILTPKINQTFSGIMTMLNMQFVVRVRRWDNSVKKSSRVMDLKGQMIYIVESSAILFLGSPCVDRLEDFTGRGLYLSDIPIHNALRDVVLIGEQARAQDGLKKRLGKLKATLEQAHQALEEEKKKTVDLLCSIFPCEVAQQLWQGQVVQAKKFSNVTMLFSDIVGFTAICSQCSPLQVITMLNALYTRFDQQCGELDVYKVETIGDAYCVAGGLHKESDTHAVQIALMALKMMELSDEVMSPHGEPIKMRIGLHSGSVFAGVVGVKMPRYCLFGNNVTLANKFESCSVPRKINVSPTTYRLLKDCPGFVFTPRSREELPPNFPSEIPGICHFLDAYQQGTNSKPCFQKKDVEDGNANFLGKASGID
The experiment in a line: sGC-HEK-cGMP assay. In kind it is cell-based. To be noted: HEK293 cells, 10 μM SNP, percentage of sGC activity obtained with positive control BAY 41-2272 (= 100%); for Emax at 10 µM: compound at 10 μM; for Emax at 30 µM: compound at 30 μM. The method, then:
Human embryonic kidney cells (HEK293), endogenously expressing soluble guanylate cyclase (sGC), were used to evaluate the activity of the test compounds. Compounds stimulating the sGC receptor should cause an increase in the intracellular concentration of cGMP. HEK 293 cells were seeded in Dulbecco's Modification of Eagle's Medium supplemented with fetal bovine serum (10% final) and L-glutamine (2 mM final) in a 200 μL volume at a density of 1×10^5 cells/well in a poly-D-lysine coated 96 well flat bottom plate and grown overnight at 37° C. Medium was aspirated and cells were washed with 1× Hank's Buffered Saline Salt Solution (200 μL). Cells were then incubated for 15 minutes at 37° C. with 0.5 mM 3-isobutyl-1-methylxanthine (200 μL). Test article was then added to the assay mixture (2 μL) and incubated in the presence of 10 μM Sodium Nitroprusside (SNP) at 37° C. for 10 minutes. After the 10 minute incubation, the assay mixture was aspirated and 0.1M HCl (200 μL) was added to the cells. The plate was incubated at 4° C. for 30 minutes in the 0.1M HCl to stop the reaction and lysed the cells. The plates were then centrifuged at 1,200 g for 5 minutes at room temperature. Supernatants were collected and transferred to a new flat bottom 96 well plate for analysis. Vehicle controls were carried out using DMSO (1%). A known sGC stimulator, BAY 41-2272, was used as the positive control.
Samples were diluted with an equal volume of 1 M Ammonium Acetate (pH 7) to neutralize samples for better chromatography. A 2×cGMP standard curve was prepared in 0.1 M HCl and then diluted with an equal volume of 1 M Ammonium Acetate, with the following final concentrations in nM: 1024, 512, 256, 128, 64, 32, 16, 8, 4, 2, 1.cGMP concentrations were determined from each sample using the LC/MS conditions (Table 2 below) and calculated standard curve. EC50 values were calculated from concentration-response curves generated with GraphPad Prism Software.
The biological activities of some of the compounds according to Formula IA or Formula IB determined with the sGC-HEK assay are summarized in Table 3 below.

The target of test [2] is T2, Human soluble guanylate cyclase enzyme (hsGC) (Homo sapiens, UniProt Q02108+Q02153).
T2 construct: purchased Enzo Inc. ALX-201-177
T2 sequence (Q02153 1-619): T1 sequence (Q02153 1-619)
T2 sequence (Q02108 1-690): T1 sequence (Q02108 1-690)
The experiment in a line: Purified human sGC enzyme activity assay (with or without SNP). To be noted: 30 μM compound; for sGC Enzyme Activity Increase at 30 μM with SNP: 1 μM SNP, specific activity vs DMSO and SNP; for sGC Enzyme Activity Increase at 30 μM without SNP: specific activity vs DMSO control. The format is biochemical. The method, then: Human soluble guanylate cyclase enzyme (hsGC) obtained from Enzo Inc. (P/N: ALX-201-177) was used to evaluate the activity of test compounds. The assay reactions contained 0.1 M Tris (pH 8.0), 0.5 mg/mL BSA (pH 8.0), 2 mM DTT, 2 mM MgCl2, 300 μM GTP, 1 mM 3-isobutyl-1-methylxanthine (IBMX) and 5 ng human soluble guanylate cyclase enzyme. Test compounds in DMSO were then added (2 μL, 10 or 30 μM final concentration) and incubated (200 μL, 96-well plate format) at 37° C. for 30 minutes. The controls were carried out using 2 μL DMSO. After the 30 minute incubation, the reaction was stopped with the addition of 200 μL of cold methanol. The plate was then centrifuged at 3,200 rpm for 10 minutes at room temperature. Supernatants (200 μL) were collected and transferred to a new 96 well plate for analysis.
An 8 point cGMP (Sigma-Aldrich P/N: G6129) standard curve was prepared in assay buffer ranging from 0.156-20 μM. Samples for the cGMP standard curve were then diluted with an equal volume of methanol resulting in final cGMP concentrations of 0.078-10 μM.
The cGMP standard curve was generated using GraphPad Prism Software.
Calculations: Specific Activity was determined by the amount of cGMP formed (nmoles) per mg of sGC per min. Enzyme activity “fold-change” was calculated by dividing the Specific Activity for a test compound by the Specific Activity of DMSO control.
The enzymatic activity fold-change of the purified human sGC enzyme determined in the presence of each of the test compounds individually at 10 or 30 μm without the addition of sodium nitroprusside (SNP), a nitric oxide donor, is presented in Table 5.
Enzyme assays were also performed as described above, but in the presence of 1 μM sodium nitroprusside (SNP). Enzymatic activity fold-changes are reported for selected test compounds in the presence of both SNP and the test compound. These were calculated by dividing the specific activity (activity increase) for the test compound dissolved in DMSO and SNP over the specific activity for the mixture of DMSO and SNP.

The structures appear in SMILES notation.

What is called Emax is the size of the effect at its maximum, as opposed to the concentration needed.

`Nc1ccnc(-c2nc(-c3nccs3)nn2Cc2ccccc2F)c1` [Compound I-47]: in test [1], the Emax at 10 µM lay in the range of 0 to 5% and the Emax at 30 µM fell in the range of 0 to 5%. In addition, in test [2], the “sGC Enzyme Activity Increase at 30 μM with SNP” value is listed as “B (B = 1 to <2 fold increase)” and the “sGC Enzyme Activity Increase at 30 μM without SNP” value is “B (B = 1 to <2 fold increase)”.

In test [1], `Fc1ccccc1Cn1nc(-c2ccccn2)nc1-n1ccnc1` [Compound I-49, 2-(1-(2-fluorobenzyl)-5-(1H-imidazol-1-yl)-1H-1,2,4-triazol-3-yl)pyridine] displayed an Emax at 10 µM of 0 to 5% and an Emax at 30 µM of 5 to 10%. Moreover, in test [2], the “sGC Enzyme Activity Increase at 30 μM with SNP” value is given as “B (B = 1 to <2 fold increase)” and the “sGC Enzyme Activity Increase at 30 μM without SNP” value was “B (B = 1 to <2 fold increase)”.

In test [1], `Fc1ccccc1Cn1nc(-c2cc(Br)ccn2)nc1-c1cscn1` [Compound I-51, 4-(3-(4-bromopyridin-2-yl)-1-(2-fluorobenzyl)-1H-1,2,4-triazol-5-yl)thiazole] showed an Emax at 10 µM of 20 to 40% and an Emax at 30 µM of 20 to 40%. For the same molecule, in test [2], the “sGC Enzyme Activity Increase at 30 μM with SNP” value is listed as “E (E = 10 to <20 fold increase)” and the “sGC Enzyme Activity Increase at 30 μM without SNP” value is “C (C = 2 to <5 fold increase)”.

With `Fc1ccccc1Cn1nc(-c2cscn2)nc1-c1cc(Br)ccn1` [Compound I-52, 4-(5-(4-bromopyridin-2-yl)-1-(2-fluorobenzyl)-1H-1,2,4-triazol-3-yl)thiazole], in test [1], the Emax at 10 µM was 0 to 5% and the Emax at 30 µM was 0 to 5%. Further, in test [2], the “sGC Enzyme Activity Increase at 30 μM with SNP” value was “B (B = 1 to <2 fold increase)” and the “sGC Enzyme Activity Increase at 30 μM without SNP” value was “B (B = 1 to <2 fold increase)”.

Regarding `Fc1ccccc1Cn1nc(-c2cc(Br)ccn2)nc1-c1cocn1` [Compound I-54, 4-(3-(4-bromopyridin-2-yl)-1-(2-fluorobenzyl)-1H-1,2,4-triazol-5-yl)oxazole], in test [1], the Emax at 10 µM fell in the range of 20 to 40% and the Emax at 30 µM was in the range of 40 to 60%. In test [2], the “sGC Enzyme Activity Increase at 30 μM with SNP” value is listed as “D (D = 5 to <10 fold increase)” and the “sGC Enzyme Activity Increase at 30 μM without SNP” value is given as “C (C = 2 to <5 fold increase)”.

For the molecule `Fc1ccccc1Cn1nc(-c2cscn2)nc1-c1cnccn1` [Compound I-55], in test [1], the Emax at 10 µM lay within 0 to 5% and the Emax at 30 µM fell in the range of 5 to 10%. In test [2], the “sGC Enzyme Activity Increase at 30 μM with SNP” value is recorded as “C (C = 2 to <5 fold increase)” and the “sGC Enzyme Activity Increase at 30 μM without SNP” value is listed as “B (B = 1 to <2 fold increase)”.

In test [1], `Fc1ccccc1Cn1nc(-c2cnccn2)nc1-c1cscn1` [Compound I-56] returned an Emax at 10 µM of 10 to 20% and an Emax at 30 µM of 40 to 60%. For the same molecule, in test [2], the “sGC Enzyme Activity Increase at 30 μM with SNP” value is given as “D (D = 5 to <10 fold increase)” and the “sGC Enzyme Activity Increase at 30 μM without SNP” value was “B (B = 1 to <2 fold increase)”.

In the case of `Nc1nc(-c2nc(-c3nccs3)n(Cc3ccccc3F)n2)nc(N)c1N` [Compound I-57, 2-(1-(2-fluorobenzyl)-5-(thiazol-2-yl)-1H-1,2,4-triazol-3-yl)pyrimidin-4,5,6-triamine], in test [1], the Emax at 10 µM fell in the range of 0 to 5% and the Emax at 30 µM fell in the range of 0 to 5%. In test [2], the “sGC Enzyme Activity Increase at 30 μM with SNP” value was “C (C = 2 to <5 fold increase)” and the “sGC Enzyme Activity Increase at 30 μM without SNP” value is listed as “B (B = 1 to <2 fold increase)”.

As to `Fc1ccccc1Cn1nc(-c2ccccn2)nc1-c1ccon1` [Compound I-58, 3-(1-(2-fluorobenzyl)-3-(pyridin-2-yl)-1H-1,2,4-triazol-5-yl)isoxazole], in test [1], the Emax at 10 µM lay in the range of 40 to 60% and the Emax at 30 µM fell in the range of 60 to 80%. Further, in test [2], the “sGC Enzyme Activity Increase at 30 μM with SNP” value is reported as “D (D = 5 to <10 fold increase)” and the “sGC Enzyme Activity Increase at 30 μM without SNP” value is listed as “C (C = 2 to <5 fold increase)”.

Turning to `Fc1ccccc1Cn1nc(-c2ncccn2)nc1-c1ccon1` [Compound I-59, 3-(1-(2-fluorobenzyl)-3-(pyrimidin-2-yl)-1H-1,2,4-triazol-5-yl)isoxazole], in test [1], the Emax at 10 µM fell in the range of 0 to 5% and the maximal effect (Emax) at 30 µM was 0 to 5%. In test [2], the “sGC Enzyme Activity Increase at 30 μM with SNP” value is reported as “A (A = no increase to <1 fold increase)” and the “sGC Enzyme Activity Increase at 30 μM without SNP” value is “A (A = no increase to <1 fold increase)”.

In test [1], `COC(=O)Nc1c(N)nc(-c2nc(-c3nccs3)n(Cc3ccccc3F)n2)nc1N` [Compound I-60, methyl 4,6-diamino-2-(1-(2-fluorobenzyl)-5-(thiazol-2-yl)-1H-1,2,4-triazol-3-yl)pyrimidin-5-ylcarbamate] yielded an Emax at 10 µM of 10 to 20% and an Emax at 30 µM of 20 to 40%. For the same molecule, in test [2], the “sGC Enzyme Activity Increase at 30 μM with SNP” value was “D (D = 5 to <10 fold increase)” and the “sGC Enzyme Activity Increase at 30 μM without SNP” value is “B (B = 1 to <2 fold increase)”.

In test [1], `Fc1ccccc1Cn1nc(-c2cocn2)nc1-c1nccs1` [Compound I-62] had an Emax at 10 µM of 10 to 20% and an Emax at 30 µM of 5 to 10%. Besides, in test [2], the “sGC Enzyme Activity Increase at 30 μM with SNP” value is recorded as “C (C = 2 to <5 fold increase)” and the “sGC Enzyme Activity Increase at 30 μM without SNP” value is reported as “A (A = no increase to <1 fold increase)”.
